Patent US20250050671A1, “THERMOSENSITIVE RECORDING LAYER FORMING LIQUID, THERMOSENSITIVE RECORDING MEDIUM AND PRODUCTION METHOD THEREOF, AND IMAGE RECORDING METHOD” (Ricoh Company, Ltd., priority 2021, published 2025)

Assay: Measurement of solubility of electron-accepting compound to solvent (saturated solution, gravimetric)
Type: physicochemical
Settings: for Electron-accepting compound Solubility to ethanol: Table 2, repeated per forming liquid, 20° C.; for Solubility, alcohol solvent ethanol / Solubility, ester solvent ethyl acetate / Solubility, alcohol solvent isopropyl alcohol / Solubility, alcohol solvent methanol / Solubility, ketone solvent methyl ethyl ketone / Solubility, aromatic solvent toluene: saturated solution at 20° C.±3° C.
Procedure: <Measurement of Solubility of Electron-Accepting Compound to Solvent> […]
(2) While stirring a stirrer or a stirring rod, an electron-accepting compound was added gradually until insoluble matter of the electron-accepting compound appears at the bottom of the beaker.
(3) The resultant was left to stand for 1 hour or longer with a lid placed on top of the beaker.
(4) If the insoluble matter was completely disappeared by stirring with the stirring rod, the processes (2) to (4) were repeated.
(5) If the insoluble matter was remained after standing for 1 hour or longer, it was determined that preparation of a saturated solution was completed.
A weight (A) of an aluminium cup was weighed with the minimum unit of 1 mg or less.
The part of the transparent supernatant liquid of the saturated solution prepared in 1 was collected by a pipette, and the collected liquid was placed in the aluminium cup (about 0.8 g to about 1.3 g in weight) and a weight of the liquid was weighed with the minimum unit of 1 mg or less.
The aluminium cup in which the liquid was collected was placed in a dryer (120° C.±10° C.). Alternatively, the aluminium cup in which the liquid was collected is placed on a hot plate (120° C.±10° C.) in an area where a local ventilation was installed.
The solvent was evaporated from the liquid for 25 minutes or longer (a lid was placed to prevent inclusion of dusts when a hot plate was used).
The aluminium cup was removed from the drier or hot plate, and was left to stand for 1 minute or longer indoor, followed by weighing the total amount (C) with a unit of 1 mg or less.

| Electron-accepting compound Solubility to ethanol | Solubility, alcohol solvent ethanol | Solubility, ester solvent ethyl acetate | Solubility, alcohol solvent isopropyl alcohol | Solubility, alcohol solvent methanol | Solubility, ketone solvent methyl ethyl ketone | Solubility, aromatic solvent toluene | SMILES |
| --- | --- | --- | --- | --- | --- | --- | --- |
| 0.1 % by mass | 0.1 % by mass | 1.3 % by mass | 0.1 % by mass | 0.1 % by mass | 11.3 % by mass | 0.1 % by mass | Cc1ccc(S(=O)(=O)Oc2cccc(NC(=O)Nc3cccc(OS(=O)(=O)c4ccc(C)cc4)c3)c2)cc1 [Electron-Accepting Compound 5, N,N′-di-[3-(p-toluenesulfonyloxy)phenyl]urea] |
| 34.1 % by mass | 34.1 % by mass | 9.7 % by mass | 34.1 % by mass | 33.7 % by mass | 36.5 % by mass | 0.1 % by mass | O=S(=O)(c1ccc(O)cc1)c1ccc(O)cc1 [Electron-Accepting Compound 6, 4,4′-sulfonylbisphenol, reference compound] |

Continued, compound first:

| SMILES | Electron-accepting compound Solubility to ethanol | Solubility, alcohol solvent ethanol | Solubility, ester solvent ethyl acetate | Solubility, alcohol solvent isopropyl alcohol | Solubility, alcohol solvent methanol | Solubility, ketone solvent methyl ethyl ketone | Solubility, aromatic solvent toluene |
| --- | --- | --- | --- | --- | --- | --- | --- |
| Oc1ccc(C2(c3ccc(O)cc3)c3ccccc3-c3ccccc32)cc1 [Electron-Accepting Compound 1, 9,9-Bis(4-hydroxyphenyl)fluorene] | 4.7 % by mass | 4.7 % by mass | 9.0 % by mass | 4.5 % by mass | 24.8 % by mass | 30.2 % by mass | 0.7 % by mass |
| Cc1ccc(S(=O)(=O)Oc2cccc(NC(=O)Nc3ccccc3)c2)cc1 [Electron-Accepting Compound 3] | 0.6 % by mass | 0.6 % by mass | 1.6 % by mass | 0.8 % by mass | 0.6 % by mass | 8.1 % by mass | 0.1 % by mass |
| Cc1ccc(S(=O)(=O)NC(=O)Nc2cccc(OS(=O)(=O)c3ccc(C)cc3)c2)cc1 [Electron-Accepting Compound 4, N-p-toluenesulfonyl-N′-3-(p-toluenesulfonyloxyphenyl)urea] | 0.4 % by mass | 0.4 % by mass | 2.1 % by mass | 0.4 % by mass | 0.8 % by mass | 12.7 % by mass | 0.1 % by mass |
